Here are results for 6 cell lines from the supplement of paper PMC10307832.

What all share (test): relative viability (nuclei count vs DMSO), 5 days (fraction); higher = more cells survive
Compound in the assay “Tozasertib + OSI-027”: Cc1cc(Nc2cc(N3CCN(C)CC3)nc(Sc3ccc(NC(=O)C4CC4)cc3)n2)n[nH]1 [Tozasertib] + COc1cccc2cc(-c3nc([C@H]4CC[C@H](C(=O)O)CC4)n4ncnc(N)c34)[nH]c12 [OSI-027] (partner 0.5 µM)
In outline:
(§1)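 One day after seeding in 1536-well plates, lung cancer cell lines were dosed by pin tool. Dosing was either single-drug or a fixed anchor-drug dose plus five library-drug doses (not always all listed) in √10 steps. After 5 days, nuclei were stained in one fix-and-stain step and counted on 4× images, and relative viability is the nuclei count of treated wells over that of vehicle wells, given as the median of duplicate plates.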

Compound in the assay “Tozasertib + Luminespib”: Cc1cc(Nc2cc(N3CCN(C)CC3)nc(Sc3ccc(NC(=O)C4CC4)cc3)n2)n[nH]1 [Tozasertib] + CCNC(=O)c1noc(-c2cc(C(C)C)c(O)cc2O)c1-c1ccc(CN2CCOCC2)cc1 [Luminespib] (partner 0.01 µM)
In a few lines:
as §1

Compound in the assay “Tozasertib + Dasatinib”: Cc1cc(Nc2cc(N3CCN(C)CC3)nc(Sc3ccc(NC(=O)C4CC4)cc3)n2)n[nH]1 [Tozasertib] + Cc1nc(Nc2ncc(C(=O)Nc3c(C)cccc3Cl)s2)cc(N2CCN(CCO)CC2)n1 [Dasatinib] (partner 0.075 µM)
In a few lines: as §1

Compound in the assay “Tozasertib + Phenformin”: Cc1cc(Nc2cc(N3CCN(C)CC3)nc(Sc3ccc(NC(=O)C4CC4)cc3)n2)n[nH]1 [Tozasertib] + N=C(N)NC(=N)NCCc1ccccc1 [Phenformin] (partner 250 µM)
In a few lines: as §1

Compound in the assay “Tozasertib + Pictilisib”: Cc1cc(Nc2cc(N3CCN(C)CC3)nc(Sc3ccc(NC(=O)C4CC4)cc3)n2)n[nH]1 [Tozasertib] + CS(=O)(=O)N1CCN(Cc2cc3nc(-c4cccc5[nH]ncc45)nc(N4CCOCC4)c3s2)CC1 [Pictilisib] (partner 1 µM)
In a few lines: as §1

As for PC-14, the relative viability with Tozasertib + OSI-027 (first compound 0.01265 µM) turned out to be 0.795; with Tozasertib + OSI-027 (first compound 0.04 µM), 1.06; with Tozasertib + OSI-027 (first compound 0.1265 µM) it was 0.523; in the assay with Tozasertib + Luminespib (first compound 0.01265 µM), 0.114; with Tozasertib + Luminespib (first compound 0.04 µM) it was 0.179; with Tozasertib + Luminespib (first compound 0.1265 µM), 0.129. Also, the relative viability with Tozasertib + Dasatinib (first compound 0.01265 µM) was 0.292; with Tozasertib + Dasatinib (first compound 0.04 µM), 0.254; with Tozasertib + Dasatinib (first compound 0.1265 µM), 0.132; with Tozasertib + Phenformin (first compound 0.004 µM), 0.248; with Tozasertib + Phenformin (first compound 0.01265 µM), 0.359; with Tozasertib + Phenformin (first compound 0.04 µM), 0.556. For the same cell line, the relative viability came to 0.257 with Tozasertib + Phenformin (first compound 0.1265 µM); 0.14 in the assay with Tozasertib + Pictilisib (first compound 0.004 µM); 0.541 in the assay with Tozasertib + Pictilisib (first compound 0.01265 µM); 0.593 with Tozasertib + Pictilisib (first compound 0.04 µM); 0.725 with Tozasertib + Pictilisib (first compound 0.1265 µM).

Regarding RERF-LC-KJ, the relative viability worked out at 0.597 with Tozasertib + OSI-027 (first compound 0.01265 µM); 0.59 in the assay with Tozasertib + OSI-027 (first compound 0.04 µM); 0.484 with Tozasertib + OSI-027 (first compound 0.1265 µM); 1.3 with Tozasertib + Luminespib (first compound 0.004 µM); 1.21 with Tozasertib + Luminespib (first compound 0.01265 µM); 1.2 with Tozasertib + Luminespib (first compound 0.04 µM). Also, the relative viability was 0.983 with Tozasertib + Luminespib (first compound 0.1265 µM); 0.729 in the assay with Tozasertib + Dasatinib (first compound 0.004 µM); 0.806 with Tozasertib + Dasatinib (first compound 0.01265 µM); 0.852 in the assay with Tozasertib + Dasatinib (first compound 0.04 µM); 0.582 in the assay with Tozasertib + Dasatinib (first compound 0.1265 µM); 0.443 in the assay with Tozasertib + Phenformin (first compound 0.004 µM). The relative viability with Tozasertib + Phenformin (first compound 0.01265 µM) is 0.425; with Tozasertib + Phenformin (first compound 0.04 µM) it was 0.485; in the assay with Tozasertib + Phenformin (first compound 0.1265 µM), 0.435; with Tozasertib + Pictilisib (first compound 0.004 µM) it was 0.503; with Tozasertib + Pictilisib (first compound 0.01265 µM), 0.594; with Tozasertib + Pictilisib (first compound 0.04 µM) it was 0.597. The relative viability with Tozasertib + Pictilisib (first compound 0.1265 µM) turned out to be 0.456.

Take SK-LU-1: the relative viability with Tozasertib + OSI-027 (first compound 0.004 µM) was found to be 0.466; with Tozasertib + OSI-027 (first compound 0.01265 µM), 0.371; with Tozasertib + OSI-027 (first compound 0.04 µM), 0.358; with Tozasertib + OSI-027 (first compound 0.1265 µM) it was 0.301; with Tozasertib + Luminespib (first compound 0.004 µM) it was 0.242; in the assay with Tozasertib + Luminespib (first compound 0.01265 µM), 0.211. In addition, the relative viability amounted to 0.197 with Tozasertib + Luminespib (first compound 0.04 µM); 0.191 in the assay with Tozasertib + Luminespib (first compound 0.1265 µM); 0.183 with Tozasertib + Dasatinib (first compound 0.004 µM); 0.191 with Tozasertib + Dasatinib (first compound 0.01265 µM); 0.188 with Tozasertib + Dasatinib (first compound 0.04 µM); 0.146 in the assay with Tozasertib + Dasatinib (first compound 0.1265 µM). The relative viability was 0.55 with Tozasertib + Phenformin (first compound 0.004 µM); 0.569 with Tozasertib + Phenformin (first compound 0.01265 µM); 0.578 in the assay with Tozasertib + Phenformin (first compound 0.04 µM); 0.324 with Tozasertib + Phenformin (first compound 0.1265 µM); 0.71 with Tozasertib + Pictilisib (first compound 0.004 µM); 0.508 in the assay with Tozasertib + Pictilisib (first compound 0.01265 µM). Besides, the relative viability with Tozasertib + Pictilisib (first compound 0.04 µM) stood at 0.639; with Tozasertib + Pictilisib (first compound 0.1265 µM), 0.458.

Regarding SK-MES-1, the relative viability in the assay with Tozasertib + OSI-027 (first compound 0.004 µM) came out at 0.518; with Tozasertib + OSI-027 (first compound 0.01265 µM) it was 0.633; with Tozasertib + OSI-027 (first compound 0.04 µM), 0.647; with Tozasertib + OSI-027 (first compound 0.1265 µM) it was 0.531; with Tozasertib + Luminespib (first compound 0.004 µM), 0.921; with Tozasertib + Luminespib (first compound 0.01265 µM) it was 0.731. The relative viability with Tozasertib + Luminespib (first compound 0.04 µM) turned out to be 0.82; with Tozasertib + Luminespib (first compound 0.1265 µM), 0.82; in the assay with Tozasertib + Dasatinib (first compound 0.004 µM), 0.358; with Tozasertib + Dasatinib (first compound 0.01265 µM), 0.336; with Tozasertib + Dasatinib (first compound 0.04 µM) it was 0.342; with Tozasertib + Dasatinib (first compound 0.1265 µM) it was 0.356. The relative viability with Tozasertib + Phenformin (first compound 0.004 µM) was found to be 0.691; with Tozasertib + Phenformin (first compound 0.01265 µM) it was 0.642; with Tozasertib + Phenformin (first compound 0.04 µM), 0.71; with Tozasertib + Phenformin (first compound 0.1265 µM) it was 0.696; with Tozasertib + Pictilisib (first compound 0.004 µM) it was 0.401; with Tozasertib + Pictilisib (first compound 0.01265 µM) it was 0.302. The relative viability with Tozasertib + Pictilisib (first compound 0.04 µM) came to 0.35; with Tozasertib + Pictilisib (first compound 0.1265 µM), 0.326.

On to SW 1573, for which the relative viability with Tozasertib + OSI-027 (first compound 0.004 µM) was determined as 0.619; with Tozasertib + OSI-027 (first compound 0.01265 µM), 0.526; in the assay with Tozasertib + OSI-027 (first compound 0.04 µM), 0.512; with Tozasertib + OSI-027 (first compound 0.1265 µM) it was 0.204; with Tozasertib + Luminespib (first compound 0.004 µM), 0.25; with Tozasertib + Luminespib (first compound 0.01265 µM), 0.239. Also, the relative viability with Tozasertib + Luminespib (first compound 0.04 µM) is 0.139; in the assay with Tozasertib + Luminespib (first compound 0.1265 µM), 0.228; in the assay with Tozasertib + Dasatinib (first compound 0.004 µM), 0.505; in the assay with Tozasertib + Dasatinib (first compound 0.01265 µM), 0.43; with Tozasertib + Dasatinib (first compound 0.04 µM), 0.361; with Tozasertib + Dasatinib (first compound 0.1265 µM), 0.0939. For the same cell line, the relative viability with Tozasertib + Phenformin (first compound 0.004 µM) came out at 0.35; in the assay with Tozasertib + Phenformin (first compound 0.01265 µM) it was 0.393; with Tozasertib + Phenformin (first compound 0.04 µM), 0.361; with Tozasertib + Phenformin (first compound 0.1265 µM) it was 0.284; with Tozasertib + Pictilisib (first compound 0.004 µM) it was 0.541; in the assay with Tozasertib + Pictilisib (first compound 0.01265 µM), 0.541. The relative viability in the assay with Tozasertib + Pictilisib (first compound 0.04 µM) came out at 0.546; in the assay with Tozasertib + Pictilisib (first compound 0.1265 µM), 0.293.

Turning to UMC-11, the relative viability amounted to 0.538 in the assay with Tozasertib + OSI-027 (first compound 0.004 µM); 0.471 with Tozasertib + OSI-027 (first compound 0.01265 µM); 0.512 with Tozasertib + OSI-027 (first compound 0.04 µM); 0.171 with Tozasertib + OSI-027 (first compound 0.1265 µM); 1.02 with Tozasertib + Luminespib (first compound 0.004 µM); 0.983 with Tozasertib + Luminespib (first compound 0.01265 µM). The relative viability in the assay with Tozasertib + Luminespib (first compound 0.1265 µM) was 0.422; with Tozasertib + Dasatinib (first compound 0.004 µM) it was 0.495; with Tozasertib + Dasatinib (first compound 0.01265 µM), 0.545; in the assay with Tozasertib + Dasatinib (first compound 0.04 µM), 0.521; in the assay with Tozasertib + Dasatinib (first compound 0.1265 µM), 0.161; in the assay with Tozasertib + Phenformin (first compound 0.004 µM), 0.372. In addition, the relative viability came out at 0.308 with Tozasertib + Phenformin (first compound 0.01265 µM); 0.3 with Tozasertib + Phenformin (first compound 0.04 µM); 0.171 in the assay with Tozasertib + Phenformin (first compound 0.1265 µM); 1.09 with Tozasertib + Pictilisib (first compound 0.004 µM); 0.788 with Tozasertib + Pictilisib (first compound 0.01265 µM); 0.864 with Tozasertib + Pictilisib (first compound 0.04 µM). In addition, in the assay with Tozasertib + Pictilisib (first compound 0.1265 µM), the relative viability stood at 0.463.
